Laboratory results reported in PubChem BioAssay (NCI).
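A five-concentration, 48-hour dose response in 96-well plates underlies each endpoint, interpolated linearly between surrounding concentrations. TGI denotes the concentration required for complete inhibition of growth.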

Experiments:
Assay in all cases: DTP human tumour cell line panel, 48 h
[1] = system: SK-MEL-28 melanoma
[2] = system: MALME-3M melanoma
[3] = system: OVCAR-4 ovarian
[4] = system: SN12C renal
[5] = system: U251 CNS
[6] = system: IGROV1 ovarian
[7] = system: KM20L2 colon
[8] = system: HCT-116 colon
[9] = system: DMS 114 small cell lung
[10] = system: MOLT-4 leukemia
[11] = system: SK-MEL-5 melanoma
[12] = system: HCC-2998 colon
[13] = system: SNB-75 CNS
[14] = system: XF 498 CNS
[15] = system: CAKI-1 renal
[16] = system: HOP-92 NSCLC
[17] = system: DMS 273 small cell lung
[18] = system: DLD-1 colon
[19] = system: COLO 205 colon
[20] = system: KM12 colon
[21] = system: SW-620 colon
[22] = system: HCT-15 colon
[23] = system: NCI-H226 lung
[24] = system: HL-60(TB) leukemia
[25] = system: OVCAR-3 ovarian
[26] = system: SF-295 CNS
[27] = system: LOX IMVI melanoma
[28] = system: A498 renal
[29] = system: NCI-H460 lung
[30] = system: UACC-257 melanoma
[31] = system: ACHN renal
[32] = system: SK-MEL-2 melanoma
[33] = system: RPMI-8226 leukemia
[34] = system: CCRF-CEM leukemia
[35] = system: OVCAR-8 ovarian
[36] = system: NCI-H522 lung
[37] = system: SNB-19 CNS
[38] = system: SNB-78 CNS
[39] = system: HOP-62 NSCLC
[40] = system: HT29 colon
[41] = system: EKVX NSCLC
[42] = system: SF-539 CNS
[43] = system: M19-MEL melanoma
[44] = system: OVCAR-5 ovarian
[45] = system: LXFL 529 NSCLC
[46] = system: UO-31 renal
[47] = system: A549 NSCLC
[48] = system: UACC-62 melanoma
[49] = system: 786-0 renal
[50] = system: TK-10 renal
[51] = system: SK-OV-3 ovarian
[52] = system: K-562 leukemia
[53] = system: NCI-H23 lung
[54] = system: M14 melanoma
[55] = system: SF-268 CNS
[56] = system: SR leukemia
[57] = system: RXF 393 renal

Measured: TGI

COc1ccc(C2C(Cl)C(=O)N2NC(=O)c2ccc(N)cc2)cc1 (stereo not given)
not listed: [55] | [56] | [57]
> 100 µM: all other assays above

O=C1C2c3[nH]c4ccccc4c3C3CCCC3C2C(=O)N1c1ccccc1 (stereo not given)
not listed: [7] | [8] | [15] | [16] | [23] | [24] | [30] | [32] | [36] | [37] | [39] | [44] | [46]
> 100 µM: all other assays above

O=C(Cn1ccnc1[N+](=O)[O-])c1ccccc1
not listed: [5] | [8] | [9] | [38] | [56]
> 100 µM: all other assays above
